In US8680133B2, “Alkyl indole-3-carbinol-derived antitumor agents” (The Ohio State University Research Foundation, priority 2009, dated 2014):
“Also recorded” adds a separate entry of the source.

Columns and labels:
SR = assay: NCI60 screening, Leukemia, SR; type: cell-based, human
HCC-2998 = assay: NCI60 screening, Colon Cancer, HCC-2998; type: cell-based, human
HCT-15 = assay: NCI60 screening, Colon Cancer, HCT-15; type: cell-based, human
KM12 = assay: NCI60 screening, Colon Cancer, KM12; type: cell-based, human
SNB-75 = assay: NCI60 screening, CNS Cancer, SNB-75; type: cell-based, human
MALME-3M = assay: NCI60 screening, Melanoma, MALME-3M; type: cell-based, human
SK-MEL-2 = assay: NCI60 screening, Melanoma, SK-MEL-2; type: cell-based, human
SK-MEL-28 = assay: NCI60 screening, Melanoma, SK-MEL-28; type: cell-based, human
NCl/ADR-RES = assay: NCI60 screening, Ovarian Cancer, NCl/ADR-RES; type: cell-based, human
ACHN = assay: NCI60 screening, Renal Cancer, ACHN; type: cell-based, human
RXF 393 = assay: NCI60 screening, Renal Cancer, RXF 393; type: cell-based, human
U0-31 = assay: NCI60 screening, Renal Cancer, U0-31; type: cell-based, human
MDA-MB-231/ATCC = assay: NCI60 screening, Breast Cancer, MDA-MB-231/ATCC; type: cell-based, human
BT-549 = assay: NCI60 screening, Breast Cancer, BT-549; type: cell-based, human
[1] = system: PC-3 prostate cancer cells; assay: MTT assay of PC-3 cell viability; type: cell-based; conditions: MTT assay, 24, 48 and 72 h; comparison in words
Method: Each data point represents means±S.D. (n=6). The activity of OSU-A9M versus its parent compound A9 ([1-(3′-nitro-4′-chlorobenzenesulfonyl)-1H-indol-3-yl]-methanol) and its fluorinated counterpart OSU-A9F ([1-(4-Chloro-3-nitro-benzenesulfonyl)-5-fluoro-1H-indol-3-yl])-methanol in suppressing the cell viability of PC-3 prostate cancer cells was compared using the MTT [3-(4,5-dimethylthiazol-2-yl)-2,5-diphenyl-2H-tetrazolium bromide] assay. Cancer cells and PrECs were grown in 5% FBS-supplemented RPMI 1640 medium or 5% FBS-supplemented prostate epithelial growth medium, respectively, in 96-well, flat-bottomed plates for 24 h, and then exposed to various concentrations of test agents in the same medium for the indicated time intervals. Controls received DMSO vehicle at a concentration equal to that in drug-treated cells. At the end of the treatment, the medium was removed, replaced by 200 μL of 0.5 mg/mL of MTT in the same medium, and cells were incubated in the CO2 incubator at 37° C. for 2 h. Supernatants were removed from the wells, and the reduced MTT dye was solubilized in 200 μL/well DMSO. Absorbance at 570 nm was determined on a plate reader.

[2] = Homo sapiens, read-out: LC50 (the source's name)

## Cc1ccc2c(c1)c(CO)cn2S(=O)(=O)c1ccc(Cl)c([N+](=O)[O-])c1 [OSU-A9M, [1-(4-chloro-3-nitro-benzenesulfonyl)-5-methyl-1H-indol-3-yl]-methanol]
SR
  TGI: 2.47E−6
SR; Homo sapiens
  GI50: 0.371 µM
SR; [2]
  CC50: > 100 µM
SR; Log10 Concentration −4.0
  Percent Growth: −46%
SR; Log10 Concentration −5.0
  Percent Growth: −25%
SR; Log10 Concentration −6.0
  Percent Growth: 16%
SR; Log10 Concentration −7.0
  Percent Growth: 94%
SR; Log10 Concentration −8.0
  Percent Growth: 85%
HCC-2998
  TGI: 2.73E−6
HCC-2998; Homo sapiens
  GI50: 1.42 µM
HCC-2998; [2]
  CC50: 5.23 µM
HCC-2998; Log10 Concentration −4.0
  Percent Growth: −99%
HCC-2998; Log10 Concentration −5.0
  Percent Growth: −100%
HCC-2998; Log10 Concentration −6.0
  Percent Growth: 77%
HCC-2998; Log10 Concentration −7.0
  Percent Growth: 91%
HCC-2998; Log10 Concentration −8.0
  Percent Growth: 96%
HCT-15
  TGI: 2.82E−6
HCT-15; Homo sapiens
  GI50: 1.5 µM
HCT-15; [2]
  CC50: 5.31 µM
HCT-15; Log10 Concentration −4.0
  Percent Growth: −100%
HCT-15; Log10 Concentration −5.0
  Percent Growth: −100%
HCT-15; Log10 Concentration −6.0
  Percent Growth: 82%
HCT-15; Log10 Concentration −7.0
  Percent Growth: 94%
HCT-15; Log10 Concentration −8.0
  Percent Growth: 92%
KM12
  TGI: 2.97E−6
KM12; Homo sapiens
  GI50: 1.62 µM
KM12; [2]
  CC50: 5.45 µM
KM12; Log10 Concentration −4.0
  Percent Growth: −100%
KM12; Log10 Concentration −5.0
  Percent Growth: −100%
KM12; Log10 Concentration −6.0
  Percent Growth: 90%
KM12; Log10 Concentration −7.0
  Percent Growth: 97%
KM12; Log10 Concentration −8.0
  Percent Growth: 105%
SNB-75
  TGI: 2.70E−6
SNB-75; Homo sapiens
  GI50: 1.4 µM
  LC50: 5.19 µM
SNB-75; Log10 Concentration −4.0
  Percent Growth: −100%
SNB-75; Log10 Concentration −5.0
  Percent Growth: −100%
SNB-75; Log10 Concentration −6.0
  Percent Growth: 76%
SNB-75; Log10 Concentration −7.0
  Percent Growth: 83%
SNB-75; Log10 Concentration −8.0
  Percent Growth: 108%
MALME-3M; Homo sapiens, Malme-3M
  GI50: 1.87 µM
MALME-3M; Homo sapiens, Malme-3M, read-out: LC50 (the source's name)
  CC50: 9 µM
MALME-3M; MALME-3M
  TGI: 4.10E−6
MALME-3M; MALME-3M, Log10 Concentration −4.0
  Percent Growth: −75%
MALME-3M; MALME-3M, Log10 Concentration −5.0
  Percent Growth: −57%
MALME-3M; MALME-3M, Log10 Concentration −6.0
  Percent Growth: 90%
MALME-3M; MALME-3M, Log10 Concentration −7.0
  Percent Growth: 78%
MALME-3M; MALME-3M, Log10 Concentration −8.0
  Percent Growth: 83%
SK-MEL-2
  TGI: 3.04E−6
SK-MEL-2; Homo sapiens
  GI50: 1.6 µM
SK-MEL-2; [2]
  CC50: 5.78 µM
SK-MEL-2; Log10 Concentration −4.0
  Percent Growth: −93%
SK-MEL-2; Log10 Concentration −5.0
  Percent Growth: −93%
SK-MEL-2; Log10 Concentration −6.0
  Percent Growth: 86%
SK-MEL-2; Log10 Concentration −7.0
  Percent Growth: 96%
SK-MEL-2; Log10 Concentration −8.0
  Percent Growth: 102%
SK-MEL-28
  TGI: 2.91E−6
SK-MEL-28; Homo sapiens
  GI50: 1.57 µM
  LC50: 5.4 µM
SK-MEL-28; Log10 Concentration −4.0
  Percent Growth: −100%
SK-MEL-28; Log10 Concentration −5.0
  Percent Growth: −100%
SK-MEL-28; Log10 Concentration −6.0
  Percent Growth: 87%
SK-MEL-28; Log10 Concentration −7.0
  Percent Growth: 89%
SK-MEL-28; Log10 Concentration −8.0
  Percent Growth: 93%
NCl/ADR-RES
  TGI: 3.32E−6
NCl/ADR-RES; Homo sapiens
  GI50: 1.81 µM
NCl/ADR-RES; [2]
  CC50: 6.09 µM
NCl/ADR-RES; Log10 Concentration −4.0
  Percent Growth: −93%
NCl/ADR-RES; Log10 Concentration −5.0
  Percent Growth: −91%
NCl/ADR-RES; Log10 Concentration −6.0
  Percent Growth: 99%
NCl/ADR-RES; Log10 Concentration −7.0
  Percent Growth: 102%
NCl/ADR-RES; Log10 Concentration −8.0
  Percent Growth: 96%
ACHN
  TGI: 3.14E−6
ACHN; Homo sapiens
  GI50: 1.76 µM
ACHN; [2]
  CC50: 5.6 µM
ACHN; Log10 Concentration −4.0
  Percent Growth: −100%
ACHN; Log10 Concentration −5.0
  Percent Growth: −100%
ACHN; Log10 Concentration −6.0
  Percent Growth: 99%
ACHN; Log10 Concentration −7.0
  Percent Growth: 93%
ACHN; Log10 Concentration −8.0
  Percent Growth: 98%
RXF 393
  TGI: 4.10E−6
RXF 393; Homo sapiens
  GI50: 1.94 µM
RXF 393; [2]
  CC50: 8.65 µM
RXF 393; Log10 Concentration −4.0
  Percent Growth: −85%
RXF 393; Log10 Concentration −5.0
  Percent Growth: −60%
RXF 393; Log10 Concentration −6.0
  Percent Growth: 94%
RXF 393; Log10 Concentration −7.0
  Percent Growth: 102%
RXF 393; Log10 Concentration −8.0
  Percent Growth: 101%
U0-31
  TGI: 3.46E−6
U0-31; Homo sapiens
  GI50: 1.83 µM
U0-31; [2]
  CC50: 6.54 µM
U0-31; Log10 Concentration −4.0
  Percent Growth: −100%
U0-31; Log10 Concentration −5.0
  Percent Growth: −83%
U0-31; Log10 Concentration −6.0
  Percent Growth: 97%
U0-31; Log10 Concentration −7.0
  Percent Growth: 98%
U0-31; Log10 Concentration −8.0
  Percent Growth: 87%
MDA-MB-231/ATCC
  TGI: 2.96E−6
MDA-MB-231/ATCC; Homo sapiens
  GI50: 1.44 µM
MDA-MB-231/ATCC; [2]
  CC50: 6.1 µM
MDA-MB-231/ATCC; Log10 Concentration −4.0
  Percent Growth: −78%
MDA-MB-231/ATCC; Log10 Concentration −5.0
  Percent Growth: −84%
MDA-MB-231/ATCC; Log10 Concentration −6.0
  Percent Growth: 75%
MDA-MB-231/ATCC; Log10 Concentration −7.0
  Percent Growth: 91%
MDA-MB-231/ATCC; Log10 Concentration −8.0
  Percent Growth: 98%
BT-549
  TGI: 3.13E−6
BT-549; Homo sapiens
  GI50: 1.67 µM
BT-549; [2]
  CC50: 5.89 µM
BT-549; Log10 Concentration −4.0
  Percent Growth: −92%
BT-549; Log10 Concentration −5.0
  Percent Growth: −92%
BT-549; Log10 Concentration −6.0
  Percent Growth: 91%
BT-549; Log10 Concentration −7.0
  Percent Growth: 87%
BT-549; Log10 Concentration −8.0
  Percent Growth: 85%
[1]
  In vitro potency against the viability of PC-3 cells: greater than or similar to that of OSU-A9; also recorded: greater potency than OSU-A9 and OSU-A9F
